20 compounds from ChEMBL document CHEMBL1125439, “Inhibitors of human purine nucleoside phosphorylase. Synthesis and biological activities of 8-amino-3-benzylhypoxanthine and related analogues” (J Med Chem, 1992) can be followed below.

Experiment [1] addresses T1, Purine nucleoside phosphorylase (Homo sapiens) (UniProt P00491).
T1 sequence (whole entry): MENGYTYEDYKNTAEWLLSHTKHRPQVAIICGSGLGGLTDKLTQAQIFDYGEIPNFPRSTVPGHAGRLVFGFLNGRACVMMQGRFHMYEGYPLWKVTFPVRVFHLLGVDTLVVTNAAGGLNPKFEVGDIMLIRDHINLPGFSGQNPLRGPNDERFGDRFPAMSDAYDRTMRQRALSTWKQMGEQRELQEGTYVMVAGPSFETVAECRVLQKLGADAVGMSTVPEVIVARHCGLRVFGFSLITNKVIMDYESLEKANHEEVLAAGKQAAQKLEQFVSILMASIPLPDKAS
Put plainly: Inhibitory activity against Purine nucleoside phosphorylase evaluated by radiochemical assay concentration <300 uM. The format is tissue-based.

For experiment [2], the target named is T2, Purine nucleoside phosphorylase (Homo sapiens, UniProt P00491).
T2 sequence (P00491 whole entry): T1 sequence (whole entry)

The target of experiment [3] is T1, Purine nucleoside phosphorylase (Homo sapiens). Put plainly: Inhibitory activity against Purine nucleoside phosphorylase evaluated by radiochemical assay <300 uM. The format is tissue-based. The following applies: Urine.
The next experiment deals with MOLT-4. Put plainly: cells. The following applies: Homo sapiens.
The target in experiment [4] is T1, Purine nucleoside phosphorylase (Homo sapiens). Put plainly: Inhibitory activity against Purine nucleoside phosphorylase evaluated by radiochemical assay at <300 uM. The class given is tissue-based. The following applies: Urine.
For experiment [5] the target is unchanged. The experiment can be described thus: Inhibitory activity against Purine nucleoside phosphorylase evaluated by radiochemical assay. The class given is tissue-based. The following applies: Urine; concentration not given here.

Regarding `CSc1nc(O)c2ncnc-2n1Cc1ccccc1`, the inhibition in experiment [1] turned out to be 23.3%.
Compound `CSc1nc(O)c2nc(N)nc-2n1Cc1ccccc1` registered an IC50 in experiment [2] above 75 µM.
In experiment [2], `Nc1[nH]c[n+](Cc2ccccc2)c2ncnc1-2` registered a half-inhibitory concentration (IC50) of 95 µM.
Regarding `Oc1ncn(Cc2ccccc2)c2ncnc1-2`, the concentration for half-maximal inhibition (IC50) turned out to be 112 µM in experiment [2] and 204 µM with MOLT-4. In experiment [3], this compound registered an inhibition of 81%.
On to `Nc1nc2c(O)nc(N)n(Cc3cccs3)c-2n1`, for which the IC50 is 4.6 µM in experiment [2] and above 25 µM in the experiment with MOLT-4.
`Nc1nc(O)c2nc(N)n(Cc3cccs3)c2n1` came in with an IC50 in the experiment on MOLT-4 of 0.82 µM.
With `COc1ccc(Cn2c(N)nc(O)c3nc(N)nc2-3)cc1`, the IC50 in experiment [2] is 8.9 µM.
`O=[N+]([O-])c1ccc(Cn2cnc(O)c3ncnc2-3)cc1` yielded an inhibition in experiment [1] of 13.1%.
For `Oc1nc(S)n(CCc2ccccc2)c2ncnc1-2`, the inhibition in experiment [4] was 10.9%.
In the case of `Nc1nc(O)c2ncn(Cc3ccccc3)c2n1`, the 50% inhibitory concentration (IC50) in experiment [2] is 29.6 µM; in the experiment with MOLT-4 it was 35 µM.
For the compound `Oc1nc(S)n(Cc2ccccc2)c2ncnc1-2`, the inhibition in experiment [5] was found to be 78.3%.
On to `Nc1nc2c(S)ncn(Cc3ccccc3)c-2n1`, for which, in experiment [2], inhibition was half-maximal at 131 µM (IC50).
Compound `Nc1nc(O)c2nc(N)n(Cc3ccco3)c2n1` gave an IC50 in the experiment with MOLT-4 of 1.47 µM.
As for `Oc1ncn(CCc2ccccc2)c2ncnc1-2`, in experiment [1], the inhibition amounted to 26.8%.
As to `Nc1nc(O)c2nc(N)n(Cc3ccccc3)c2n1`, the values for the IC50 (in experiment [2]; in the experiment with MOLT-4) were 0.47 µM and 0.77 µM, respectively.
Taken in the same sequence, the figures for `Nc1nc2c(O)nc(N)n(Cc3ccco3)c-2n1` were 5.2 µM and 42.5 µM.
The compound `Nc1nc(O)c2nc(NC=O)nc-2n1Cc1ccccc1` gave an IC50 in experiment [2] above 150 µM.
For the compound `O=c1[nH]c(=O)n(Cc2ccccc2)c2nc[nH]c12`, the IC50 in experiment [2] was found to be 13.4 µM; in the experiment on MOLT-4, 28.6 µM.
Compound `Oc1ncn(Cc2ccc(Cl)c(Cl)c2)c2ncnc1-2` had an inhibition in experiment [1] of 36.9%.
Same read-out and setting: as for `N#Cc1ccc(Cn2cnc(O)c3ncnc2-3)cc1`, the figure is 22.2%.
